Laboratory results: patent US20160367464A1, “METHOD AND COMPOSITION FOR IMPROVING SKIN CONDITIONS COMPRISING HUMAN PLACENTAL LACTOGEN AS AN ACTIVE INGREDIENT” (Regeron, Inc., priority 2012, published 2016)
Values joined by “and” are separate entries in the source; they are usually repeats but may differ in a detail not shown here. Equal values may be shown once.

Experiments:
Assay type in all cases: in vivo, mouse
[1] = test system: Nc/Nga mice with atopic dermatitis; assay: Skin thickness measurement on H&E stained slides, Nc/Nga mice with atopic dermatitis
Description: Upon the completion of all necessary treatments, affected areas of the dorsal skin was severed and fixed in 4% formaldehyde and set into a block using paraffin. The paraffin block was cut into 10 um thin slices using microtome, which were set on glass slides followed by stained with hematoxylin and eosin (H&E) before subject to the microscopic observation.
The tissue slides stained with H&E were photographed in order to measure the skin thickness ranging from exoderm, fat layer to the muscle layer using the appropriate software provided for the microscope utilized for the measurement of skin thickness.

[2] = test system: Nc/Nga mice with short term atopic dermatitis; assay: Skin damage score, short term TNCB-induced atopic dermatitis; settings: short term (6 weeks); for Overall damage: sum of erythema, edema, erosion, dryness divided by number of animals (3)
Protocol: (§1) Four weeks old male Nc/Nga mice were purchased from Orientbio Inc. (Korea) and bred at 24±2° C. and 50±10% relative humidity under 12 hours light/dark cycles. Animals were subject to 1-week acclimating period prior to the experiments.
First, the dorsal area of Nc/Nga mice was shaved, which was sensitized by applying 5% TNCB 150 µl. Then 1% TNCB solution made in olive oil was applied to the sensitized area once every week for 6 weeks.
(§2) Lipo-hPL (20 μg/ml) was topically applied 5 times per week for 6 weeks (short term) and 13 weeks (long term).
(§3) The skin damage was classified to 4 types as described in the Table 8. Based on the pictures taken every week for the inflamed dorsal area, the severity of the damage was evaluated and scored based on the 4 levels as shown below.

[3] = test system: Nc/Nga mice with long term atopic dermatitis; assay: Skin damage score, long term TNCB-induced atopic dermatitis
Protocol: as §1
The dorsal area of Nc/Nga mice was shaved, which was sensitized by applying 5% TNCB 150 µl. Then 1% TNCB solution made in olive oil was applied to the sensitized area for total 22 times over the period of 13 weeks.
as §2, §3

serum IgE = assay: Serum IgE measurement (ELISA) in Nc/Nga mice with atopic dermatitis; settings: TNCB-treated Nc/Nga mice, short term topical application (FIG. 13), Lipo-hPL 20 μg/ml
Description: Atopic individuals can have up to 10 times the normal level of IgE in their blood, even though this may not be a requirement for symptoms to occur as has been seen in asthmatics with normal IgE levels in their blood—recent research has shown that IgE production can occur locally in the nasal mucosa (Takhar P et al. (2005) J Immunol 174 (8): 5024-32). After the completion of the Lipo-hPL treatment for the induced inflammation, blood was drawn from the great saphenons vein and the serum was obtained by centrifugation. The serum IgE was measured using the IgE ELISA kit (GomaBiotech, Korea).

[4] = test system: UVB-irradiated SKH-1 female nude mice; assay: Wrinkle improving effects in UVB-irradiated SKH-1 hairless nude mice (Donald method); set-up: key: —: No wrinkle formation; *: Slightly deep and thick wrinkle; **: Slightly to moderately deep and thick wrinkle; ***: Moderately deep and thick wrinkle; ****: Moderately to severely deep and thick wrinkle; *****: Severely deep and thick wrinkle; settings: SKH-1 nude mice, U.V. irradiation Yes, 0.1% retinoic acid in 15% EtOH
Protocol: The 4-week-old SKH-1 female nude mice were purchased from Douyul Biotech, Sungnam, Korea). The animal breeding chambers were kept at 24±0.2° C. and relative humidity at 50±10% in a 12-hr light/12-hr dark cycle. The animals were permitted free access to solid feed (Central Lab. Animal Inc., Seoul, Korea) and water sterilized by irradiation and acclimated for about 2 weeks before divided them into 7 groups by random selection.
In order to induce wrinkle formation on the backside of the nude mice, UVB was irradiated to the mice three times a week for 11 weeks using the VLX-3W stimulator (Vilber Lourmat, Marne la Vallee, France) in the protocol: 30 mJ/cm^2 for the weeks 1 and 2, 40 mJ/cm^2 for the weeks 3 and 4, 50 mJ/cm^2 for the weeks 5 through 9, and 60 mJ/cm^2 for the weeks 10 and 11. […]
The wrinkle-improving effect was evaluated according to the Donald method (Hyun-Seok Kim et. al, Mech. Ageing Dev. 126:1255-61, 2005). […] In the present invention, the effects of Lipo-hPL and other skin-conditioning agents on wrinkle formation were evaluated by observing changes of the thickness and depth of wrinkles before and after treatments.

[5] = score 0-3 per animal summed over 3 animals, Lipo-hPL 20 μg/ml topical 5 times per week
[6] = long term (13 weeks), scores summed over 2 animals, Lipo-hPL 20 μg/ml topical 5 times per week

Row | Compound | Exodermal thickness of animals treated with TNCB only relative to treated animals [1] | Average skin thickness (epidermis, dermis and subcutaneous layer) ([1]; TNCB-treated Nc/Nga mice, long term topical application (FIG. 16)) [μm] | Dryness [2, 5] | Edema [2, 5] | Erosion [2, 5] | Erythema [2, 5] | Overall damage [2] | Overall damage ([2]; listed as FK506) | Dryness [3, 6] | Edema [3, 6] | Erosion [3, 6] | Erythema [3, 6] | Overall damage ([3]; long term (13 weeks), sum of erythema, edema, erosion, dryness divided by number of animals (2)) | Long term skin damages score ([3]; long term, out of 10 as the most severe damage) | IgE (serum IgE) [ng/mL] | Changes in wrinkle depth and thickness ([4]; Appendix Table 5, topical 11 weeks, 20 μg/ml Lipo-hPL, 4.1 μg/ml Lipo-his-hPL) | Changes in wrinkle depth and thickness ([4]; topical 5 times a week for 11 weeks, 20 µg/ml Lipo-hPL, 4 µg/ml Lipo-his-hPL)
1 | C=CC[C@@H]1/C=C(\C)C[C@H](C)C[C@H](OC)[C@H]2O[C@@](O)(C(=O)C(=O)N3CCCC[C@H]3C(=O)O[C@H](/C(C)=C/[C@@H]3CC[C@@H](O)[C@H](OC)C3)[C@H](C)[C@@H](O)CC1=O)[C@H](C)C[C@@H]2OC [Tacrolimua (FK506), Tacrolimua] | approximately 10 folds | 408.0±23.4 | 3 | 0 | 3 | 3 | 3.0 | 3.0±0.3 | 3 | 1.5 | 3.5 | 1.5 | 4.75 and 4.8 | 2.4±0.7 | 107.1 | – | –
2 | CC1=C(/C=C/C(C)=C/C=C/C(C)=C/C(=O)O)C(C)(C)CCC1 [Retinoic acid, retinoic acid] | – | – | – | – | – | – | – | – | – | – | – | – | – | – | – | ** | **
